# Reference: ChEMBL document CHEMBL1201862, “PubChem BioAssay data set” (2004)
# Calls of active or inactive are those of the source.
# Tests used:
# [1] = molecular target: T1, RNA-binding protein pos-1 (Caenorhabditis elegans, UniProt G5EF15); test: disruptors of C. elegans POS-1 RNA interaction – biochemical, fluorescence polarization, dose response (AID 1964);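 also: purified POS-1 fused to maltose binding protein made in E. coli; potency of compounds blocking POS-1 binding to fluorescent RNA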
# T1 sequence (G5EF15 whole entry): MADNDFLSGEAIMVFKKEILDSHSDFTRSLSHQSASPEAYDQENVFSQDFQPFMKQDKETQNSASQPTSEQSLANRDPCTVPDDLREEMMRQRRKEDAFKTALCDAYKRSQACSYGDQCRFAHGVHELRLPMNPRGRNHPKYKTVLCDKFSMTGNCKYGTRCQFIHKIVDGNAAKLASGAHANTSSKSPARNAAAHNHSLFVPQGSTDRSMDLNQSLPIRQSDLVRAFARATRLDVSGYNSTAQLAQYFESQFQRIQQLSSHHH
# [2] = molecular target: T2, Apoptotic protease-activating factor 1 (Homo sapiens, UniProt O14727); test: activation of Apaf-1 mediated apoptosis – fluorescent, uHTS hits, dose response (AID 588554); format: functional
# T2 sequence (O14727 whole entry): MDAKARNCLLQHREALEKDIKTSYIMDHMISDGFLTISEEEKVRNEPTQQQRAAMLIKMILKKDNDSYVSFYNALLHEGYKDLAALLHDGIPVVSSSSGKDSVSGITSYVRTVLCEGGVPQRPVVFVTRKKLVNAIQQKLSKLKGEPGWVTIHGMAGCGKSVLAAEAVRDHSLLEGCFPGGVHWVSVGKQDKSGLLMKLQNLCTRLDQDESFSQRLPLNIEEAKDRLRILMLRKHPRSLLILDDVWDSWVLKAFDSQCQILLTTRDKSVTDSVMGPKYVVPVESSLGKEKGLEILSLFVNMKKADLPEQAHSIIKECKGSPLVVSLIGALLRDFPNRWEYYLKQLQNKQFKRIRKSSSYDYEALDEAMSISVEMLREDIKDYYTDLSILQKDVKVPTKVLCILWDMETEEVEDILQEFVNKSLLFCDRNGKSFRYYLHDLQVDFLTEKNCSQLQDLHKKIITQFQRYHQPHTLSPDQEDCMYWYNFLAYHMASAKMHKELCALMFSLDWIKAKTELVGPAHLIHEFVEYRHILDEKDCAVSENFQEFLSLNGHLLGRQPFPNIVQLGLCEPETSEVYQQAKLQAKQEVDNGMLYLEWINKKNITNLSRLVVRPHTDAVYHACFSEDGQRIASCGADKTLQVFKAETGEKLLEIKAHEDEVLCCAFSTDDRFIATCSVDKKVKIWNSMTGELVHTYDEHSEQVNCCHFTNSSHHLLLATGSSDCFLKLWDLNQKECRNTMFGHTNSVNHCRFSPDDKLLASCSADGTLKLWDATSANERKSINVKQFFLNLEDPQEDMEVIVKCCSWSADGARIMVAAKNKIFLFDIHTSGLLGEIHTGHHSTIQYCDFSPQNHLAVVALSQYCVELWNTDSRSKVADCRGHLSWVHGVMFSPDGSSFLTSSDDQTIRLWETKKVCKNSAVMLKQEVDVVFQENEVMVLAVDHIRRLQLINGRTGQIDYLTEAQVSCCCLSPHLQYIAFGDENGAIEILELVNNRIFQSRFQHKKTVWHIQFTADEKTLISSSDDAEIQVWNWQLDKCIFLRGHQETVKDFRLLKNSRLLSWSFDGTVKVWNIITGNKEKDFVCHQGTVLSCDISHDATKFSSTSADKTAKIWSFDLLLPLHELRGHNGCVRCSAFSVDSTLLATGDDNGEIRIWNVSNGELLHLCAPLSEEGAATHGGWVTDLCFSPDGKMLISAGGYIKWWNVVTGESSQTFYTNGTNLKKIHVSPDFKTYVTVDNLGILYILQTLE
# [3] = molecular target: Dual specificity protein phosphatase 3 (Homo sapiens, UniProt P51452); test: VHR1 phosphatase inhibitors, primary screen, biochemical, absorbance, uHTS (AID 1654)
# Aminopeptidase N = molecular target: T3, Aminopeptidase N (Plasmodium falciparum FcB1/Columbia, UniProt O96935); test: malaria alanyl aminopeptidase activity blockers – biochemical, fluorogenic H-Leu-NHMec substrate, 1536-well (AID 1445); design: species or system Plasmodium falciparum 3D7, 3D7
# T3 sequence (O96935 whole entry): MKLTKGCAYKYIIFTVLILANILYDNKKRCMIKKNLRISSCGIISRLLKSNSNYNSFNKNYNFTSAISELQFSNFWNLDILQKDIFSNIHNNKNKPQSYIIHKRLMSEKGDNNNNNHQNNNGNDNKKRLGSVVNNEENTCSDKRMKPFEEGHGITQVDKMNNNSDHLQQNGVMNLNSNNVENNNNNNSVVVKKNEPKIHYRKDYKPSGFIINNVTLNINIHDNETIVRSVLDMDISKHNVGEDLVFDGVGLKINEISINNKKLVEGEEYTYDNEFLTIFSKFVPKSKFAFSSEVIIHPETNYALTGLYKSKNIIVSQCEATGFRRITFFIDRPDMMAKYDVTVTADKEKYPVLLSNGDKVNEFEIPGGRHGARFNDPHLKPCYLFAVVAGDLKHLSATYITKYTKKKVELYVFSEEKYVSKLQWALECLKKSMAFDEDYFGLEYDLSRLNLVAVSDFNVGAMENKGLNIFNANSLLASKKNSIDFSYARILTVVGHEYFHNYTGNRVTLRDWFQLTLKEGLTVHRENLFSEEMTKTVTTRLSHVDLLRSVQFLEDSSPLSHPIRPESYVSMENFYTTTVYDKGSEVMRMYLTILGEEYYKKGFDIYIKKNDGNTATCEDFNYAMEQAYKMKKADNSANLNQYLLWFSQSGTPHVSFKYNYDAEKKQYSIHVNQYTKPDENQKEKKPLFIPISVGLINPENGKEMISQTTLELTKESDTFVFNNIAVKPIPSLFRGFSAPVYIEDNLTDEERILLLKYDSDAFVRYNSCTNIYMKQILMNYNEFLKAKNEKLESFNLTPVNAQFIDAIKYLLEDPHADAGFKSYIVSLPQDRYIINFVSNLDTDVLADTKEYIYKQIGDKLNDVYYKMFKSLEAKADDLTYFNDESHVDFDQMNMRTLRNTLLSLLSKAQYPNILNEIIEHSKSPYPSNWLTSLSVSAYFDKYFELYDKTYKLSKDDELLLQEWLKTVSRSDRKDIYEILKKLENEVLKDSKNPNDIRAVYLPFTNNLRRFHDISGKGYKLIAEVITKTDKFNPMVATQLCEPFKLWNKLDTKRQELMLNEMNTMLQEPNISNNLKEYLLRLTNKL
# Dual specificity protein phosphatase 3, sequence (P51452 whole entry): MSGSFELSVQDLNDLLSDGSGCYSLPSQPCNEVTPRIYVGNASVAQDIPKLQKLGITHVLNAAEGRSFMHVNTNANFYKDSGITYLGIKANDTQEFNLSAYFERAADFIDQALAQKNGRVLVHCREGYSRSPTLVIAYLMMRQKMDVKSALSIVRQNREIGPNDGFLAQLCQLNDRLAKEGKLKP
structure (smiles),measurement,setting,value
Nc1ccc2nc3c(O)nc(S)nc3nc2c1,EC50,[1],7.85 µM (inconclusive)
CSc1ccc(C=NNc2ccc(S(=O)(=O)Nc3ccccc3C(=O)O)cc2[N+](=O)[O-])cc1,EC50,[2],8.23 µM (active)
O=C(O)COc1ccc(/C=N/NC(=O)c2ccc(-c3csc(Nc4ccc(Cl)cc4)n3)cc2)cc1,IC50,[3],2.52 µM (active)
CC(/C=C1\SC(=S)N(NS(=O)(=O)c2ccccc2)C1=O)=C\c1ccccc1,IC50,Aminopeptidase N,45.4 µM (active)
